According to patent publication US6352998B2, “Pharmaceutical compositions” (Novartis AG, priority 1997, dated 2002):

Tested on: chronic plaque psoriasis
Test: Topical treatment of chronic plaque psoriasis in humans, once a day
Type: in vivo
Conditions: topical application of 0.01 to 1% w/w once a day

| Compound | Efficacy in the treatment of chronic plaque psoriasis |
| --- | --- |
| CC[C@@H]1/C=C(\C)C[C@H](C)C[C@H](OC)[C@H]2O[C@@](O)(C(=O)C(=O)N3CCCC[C@H]3C(=O)O[C@H](/C(C)=C/[C@@H]3CC[C@@H](O)[C@H](OC)C3)[C@H](C)[C@@H](O)CC1=O)[C@H](C)C[C@@H]2OC (relative stereo) [Compound 3, [3S-[3R*[E(1S*,3S*,4S*)],4S*,5R*,8S*,9E,12R*,14R*,15S*,16R*,18S*,-19S*,26aR*]]-5,6,8,11,12,13,14,15,16,17,18,19,24,25,26,26a-hexadecahydro-5,19-dihydroxy-3-[2-(4-hydroxy-3-methoxy-cyclohexyl)-1-methylethenyl)]-14,16-dimethoxy4,10,12,18,-tetramethyl-8-ethyl-15,19-epoxy-3H-pyrido[2,1-c][1,4]oxaazacyclotricosine-1,7,20,21(4H,23H)-tetrone] | effective |
| [3S-[3R*[E(1S*,3S*,4S*)],4S*,5R*,8S*,9E,12R*,-14R*,15S*,16R*,18S*,19S*,26aR*]]-5,6,8,11,12,13,14,15,16,17,18,19,24,25,26,26a-hexadecahydro-5,19-dihydroxy-3-(3-hydroxymethylcyclopentyl)-1-methylethenyl)]-14,16-dimethoxy-4,10,12,18,-tetramethyl-8-ethyl-15,19-epoxy-3H-pyrido[2,1-c][1,4]oxaazacyclotricosine-1,7,20,21(4H,23H)-tetrone [Compound 2] | effective |
